Key:
Experiment in all cases: SelectScreen, TR FRET
Details in all cases: compound 5.0 µM
ABL1 (human) = ABL1 (human) (UniProt P00519)
[1] = system: ABL1 (human), P00519 [T315I]
[2] = system: ABL1 (human), P00519 [Y253F]
AKT1 (human) = AKT1 (human) (UniProt P31749)
CDK1 CCNB1 (human) = CDK1 CCNB1 (human) (UniProt P06493+P14635)
CDK5 CDK5R1 p35 (human) = CDK5 CDK5R1 p35 (human) (UniProt Q00535+Q15078)
CLK2 (human) = CLK2 (human) (UniProt P49760)
CSNK2A1 (human) = CSNK2A1 (human) (UniProt P68400)
DAPK3 (human) = DAPK3 (human) (UniProt O43293)
DAPK3 (human), sequence (O43293 whole entry, looked up): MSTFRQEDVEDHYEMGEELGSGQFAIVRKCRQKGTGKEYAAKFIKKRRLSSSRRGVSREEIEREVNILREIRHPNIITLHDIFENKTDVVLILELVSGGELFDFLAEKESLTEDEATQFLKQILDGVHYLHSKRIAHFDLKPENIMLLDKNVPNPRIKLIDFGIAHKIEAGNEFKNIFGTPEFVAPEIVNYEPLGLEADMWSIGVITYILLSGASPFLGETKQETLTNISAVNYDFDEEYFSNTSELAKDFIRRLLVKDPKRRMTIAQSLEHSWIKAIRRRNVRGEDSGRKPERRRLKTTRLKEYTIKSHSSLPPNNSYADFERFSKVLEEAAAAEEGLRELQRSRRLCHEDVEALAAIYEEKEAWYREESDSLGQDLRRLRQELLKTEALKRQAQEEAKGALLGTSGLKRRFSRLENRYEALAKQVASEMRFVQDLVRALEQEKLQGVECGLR

[3] = system: EGFR (human), P00533 [L858R]
[4] = system: EGFR (human), P00533 [L861Q]
EPHA2 (human) = EPHA2 (human) (UniProt P29317)
EPHA3 (human) = EPHA3 (human) (UniProt P29320)
EPHB3 (human) = EPHB3 (human) (UniProt P54753)
EPHB4 (human) = EPHB4 (human) (UniProt P54760)
ERBB2 (human) = ERBB2 (human) (UniProt P04626)
ERBB2 (human), sequence (P04626 whole entry, looked up): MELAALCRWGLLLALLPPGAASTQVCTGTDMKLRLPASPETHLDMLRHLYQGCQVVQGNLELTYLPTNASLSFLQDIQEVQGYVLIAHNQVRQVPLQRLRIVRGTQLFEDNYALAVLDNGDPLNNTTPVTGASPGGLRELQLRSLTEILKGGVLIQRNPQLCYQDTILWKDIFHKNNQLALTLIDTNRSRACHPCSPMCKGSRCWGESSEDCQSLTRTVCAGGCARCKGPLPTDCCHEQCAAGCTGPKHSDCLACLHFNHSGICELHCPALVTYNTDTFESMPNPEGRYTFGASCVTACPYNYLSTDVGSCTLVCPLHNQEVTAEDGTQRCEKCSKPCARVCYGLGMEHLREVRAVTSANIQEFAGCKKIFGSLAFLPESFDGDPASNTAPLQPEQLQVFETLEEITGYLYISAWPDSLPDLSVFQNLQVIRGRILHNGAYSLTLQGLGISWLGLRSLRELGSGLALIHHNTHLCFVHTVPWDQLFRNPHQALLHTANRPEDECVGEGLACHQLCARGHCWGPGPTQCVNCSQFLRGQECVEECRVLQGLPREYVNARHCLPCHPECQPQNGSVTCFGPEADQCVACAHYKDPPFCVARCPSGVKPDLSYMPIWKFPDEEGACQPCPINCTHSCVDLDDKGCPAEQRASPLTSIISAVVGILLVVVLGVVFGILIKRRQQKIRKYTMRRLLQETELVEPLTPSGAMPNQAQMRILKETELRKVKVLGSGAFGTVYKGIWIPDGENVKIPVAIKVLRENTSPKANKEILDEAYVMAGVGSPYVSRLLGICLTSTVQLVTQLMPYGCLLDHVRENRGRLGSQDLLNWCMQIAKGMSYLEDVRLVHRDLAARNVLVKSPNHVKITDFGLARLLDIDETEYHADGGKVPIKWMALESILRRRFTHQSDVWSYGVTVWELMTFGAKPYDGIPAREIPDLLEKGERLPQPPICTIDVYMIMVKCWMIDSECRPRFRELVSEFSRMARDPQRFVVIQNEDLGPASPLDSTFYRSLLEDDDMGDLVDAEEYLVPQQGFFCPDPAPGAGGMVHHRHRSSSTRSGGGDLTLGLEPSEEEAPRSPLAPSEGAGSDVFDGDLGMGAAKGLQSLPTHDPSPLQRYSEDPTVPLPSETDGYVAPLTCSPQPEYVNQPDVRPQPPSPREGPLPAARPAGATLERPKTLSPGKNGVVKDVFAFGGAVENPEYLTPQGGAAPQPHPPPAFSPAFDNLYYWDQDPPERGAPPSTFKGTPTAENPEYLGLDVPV

FYN (human) = FYN (human) (UniProt P06241)
GRK4 (human) = GRK4 (human) (UniProt P32298)
INSRR (human) = INSRR (human) (UniProt P14616)
IRAK4 (human) = IRAK4 (human) (UniProt Q9NWZ3)
JAK2 JH1 JH2 (human) = JAK2 JH1 JH2 (human) (UniProt O60674)
MAPK1 (human) = MAPK1 (human) (UniProt P28482)
MAPKAPK5 (human) = MAPKAPK5 (human) (UniProt Q8IW41)
[5] = system: MET (human), P08581 [M1250T]
MST4 (human) = MST4 (human) (UniProt Q9P289)
MUSK (human) = MUSK (human) (UniProt O15146)
MUSK (human), sequence (O15146 whole entry, looked up): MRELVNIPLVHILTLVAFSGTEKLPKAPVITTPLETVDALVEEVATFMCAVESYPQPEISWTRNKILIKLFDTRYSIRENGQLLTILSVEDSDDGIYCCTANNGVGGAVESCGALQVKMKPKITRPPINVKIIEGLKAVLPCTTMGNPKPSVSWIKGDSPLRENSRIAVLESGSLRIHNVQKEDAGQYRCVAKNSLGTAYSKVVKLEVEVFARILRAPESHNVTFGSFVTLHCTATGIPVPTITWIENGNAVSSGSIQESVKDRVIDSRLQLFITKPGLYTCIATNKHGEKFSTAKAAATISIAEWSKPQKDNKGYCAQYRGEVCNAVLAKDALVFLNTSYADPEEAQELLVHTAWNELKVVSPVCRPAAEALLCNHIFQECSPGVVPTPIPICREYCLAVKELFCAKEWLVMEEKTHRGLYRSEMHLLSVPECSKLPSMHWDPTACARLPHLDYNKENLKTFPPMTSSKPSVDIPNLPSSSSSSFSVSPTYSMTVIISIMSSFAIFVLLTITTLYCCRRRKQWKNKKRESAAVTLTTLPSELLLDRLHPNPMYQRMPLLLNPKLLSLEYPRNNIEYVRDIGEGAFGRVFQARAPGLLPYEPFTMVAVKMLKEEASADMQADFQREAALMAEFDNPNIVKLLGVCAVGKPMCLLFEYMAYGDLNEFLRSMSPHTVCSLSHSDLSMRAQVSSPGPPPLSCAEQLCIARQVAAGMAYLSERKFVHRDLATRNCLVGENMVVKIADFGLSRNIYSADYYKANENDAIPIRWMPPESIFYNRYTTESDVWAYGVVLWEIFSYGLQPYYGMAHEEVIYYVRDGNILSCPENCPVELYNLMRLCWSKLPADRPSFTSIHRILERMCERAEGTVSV

MYLK2 (human) = MYLK2 (human) (UniProt Q9H1R3)
NTRK2 (human) = NTRK2 (human) (UniProt Q16620)
PAK3 (human) = PAK3 (human) (UniProt O75914)
PDGFRB (human) = PDGFRB (human) (UniProt P09619)
PDGFRB (human), sequence (P09619 whole entry, looked up): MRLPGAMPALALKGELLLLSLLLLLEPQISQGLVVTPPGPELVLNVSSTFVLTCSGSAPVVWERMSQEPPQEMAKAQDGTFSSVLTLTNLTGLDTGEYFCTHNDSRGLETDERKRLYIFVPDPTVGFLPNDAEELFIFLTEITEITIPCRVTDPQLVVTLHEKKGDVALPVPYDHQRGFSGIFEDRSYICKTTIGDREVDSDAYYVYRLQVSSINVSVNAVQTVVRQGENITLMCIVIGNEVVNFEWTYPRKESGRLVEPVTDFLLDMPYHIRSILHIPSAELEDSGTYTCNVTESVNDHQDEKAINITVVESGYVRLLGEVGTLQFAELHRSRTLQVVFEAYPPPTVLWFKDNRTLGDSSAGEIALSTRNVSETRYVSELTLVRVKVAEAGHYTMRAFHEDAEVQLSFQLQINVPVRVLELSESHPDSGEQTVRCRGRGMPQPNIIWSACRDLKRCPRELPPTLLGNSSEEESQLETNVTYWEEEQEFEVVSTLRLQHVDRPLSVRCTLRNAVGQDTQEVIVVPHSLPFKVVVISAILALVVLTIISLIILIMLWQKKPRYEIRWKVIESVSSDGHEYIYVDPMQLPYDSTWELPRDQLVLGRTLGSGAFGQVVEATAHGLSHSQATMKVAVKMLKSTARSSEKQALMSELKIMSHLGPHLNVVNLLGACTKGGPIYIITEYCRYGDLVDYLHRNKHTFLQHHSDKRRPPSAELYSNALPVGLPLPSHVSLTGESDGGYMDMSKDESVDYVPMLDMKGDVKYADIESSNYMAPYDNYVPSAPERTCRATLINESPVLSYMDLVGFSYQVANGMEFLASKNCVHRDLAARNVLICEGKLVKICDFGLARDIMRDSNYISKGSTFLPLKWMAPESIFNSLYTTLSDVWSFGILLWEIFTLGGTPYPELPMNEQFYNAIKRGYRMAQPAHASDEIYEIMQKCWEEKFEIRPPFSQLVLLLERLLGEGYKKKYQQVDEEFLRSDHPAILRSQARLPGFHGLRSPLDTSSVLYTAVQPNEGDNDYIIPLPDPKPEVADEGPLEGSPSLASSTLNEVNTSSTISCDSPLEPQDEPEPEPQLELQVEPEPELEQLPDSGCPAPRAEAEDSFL

PDPK1 (human) = PDPK1 (human) (UniProt O15530)
PLK2 (human) = PLK2 (human) (UniProt Q9NYY3)
PRKACA (human) = PRKACA (human) (UniProt P17612)
PRKCD (human) = PRKCD (human) (UniProt Q05655)
PTK2 (human) = PTK2 (human) (UniProt Q05397)
RPS6KA5 KD1 KD2 (human) = RPS6KA5 KD1 KD2 (human) (UniProt O75582)
SGK2 (human) = SGK2 (human) (UniProt Q9HBY8)
SGK2 (human), sequence (Q9HBY8 whole entry, looked up): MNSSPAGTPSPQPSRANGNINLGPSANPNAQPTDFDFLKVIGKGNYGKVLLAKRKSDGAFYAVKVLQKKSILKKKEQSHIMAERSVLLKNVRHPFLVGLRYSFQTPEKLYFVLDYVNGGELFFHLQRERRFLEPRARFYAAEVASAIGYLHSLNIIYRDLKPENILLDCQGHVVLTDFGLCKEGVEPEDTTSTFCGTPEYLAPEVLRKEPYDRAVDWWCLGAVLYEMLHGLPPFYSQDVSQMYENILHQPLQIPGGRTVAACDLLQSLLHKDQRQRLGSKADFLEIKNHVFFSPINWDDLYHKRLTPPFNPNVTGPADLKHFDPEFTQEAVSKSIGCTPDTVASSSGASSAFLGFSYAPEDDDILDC

STK24 (human) = STK24 (human) (UniProt Q9Y6E0)
STK24 (human), sequence (Q9Y6E0 whole entry, looked up): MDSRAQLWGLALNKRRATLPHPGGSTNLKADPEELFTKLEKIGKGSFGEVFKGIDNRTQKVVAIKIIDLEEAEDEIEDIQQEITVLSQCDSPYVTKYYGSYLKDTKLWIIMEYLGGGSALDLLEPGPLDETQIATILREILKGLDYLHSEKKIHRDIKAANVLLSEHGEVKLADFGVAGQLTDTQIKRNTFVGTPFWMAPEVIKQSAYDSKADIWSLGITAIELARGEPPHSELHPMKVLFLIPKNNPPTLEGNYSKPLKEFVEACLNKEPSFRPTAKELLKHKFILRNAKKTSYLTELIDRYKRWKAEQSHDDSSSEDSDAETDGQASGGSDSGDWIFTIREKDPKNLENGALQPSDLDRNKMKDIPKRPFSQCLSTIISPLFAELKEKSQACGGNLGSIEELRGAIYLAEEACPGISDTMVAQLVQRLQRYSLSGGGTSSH

STK3 (human) = STK3 (human) (UniProt Q13188)
SYK (human) = SYK (human) (UniProt P43405)

CLK2 (human), sequence (P49760 whole entry, looked up): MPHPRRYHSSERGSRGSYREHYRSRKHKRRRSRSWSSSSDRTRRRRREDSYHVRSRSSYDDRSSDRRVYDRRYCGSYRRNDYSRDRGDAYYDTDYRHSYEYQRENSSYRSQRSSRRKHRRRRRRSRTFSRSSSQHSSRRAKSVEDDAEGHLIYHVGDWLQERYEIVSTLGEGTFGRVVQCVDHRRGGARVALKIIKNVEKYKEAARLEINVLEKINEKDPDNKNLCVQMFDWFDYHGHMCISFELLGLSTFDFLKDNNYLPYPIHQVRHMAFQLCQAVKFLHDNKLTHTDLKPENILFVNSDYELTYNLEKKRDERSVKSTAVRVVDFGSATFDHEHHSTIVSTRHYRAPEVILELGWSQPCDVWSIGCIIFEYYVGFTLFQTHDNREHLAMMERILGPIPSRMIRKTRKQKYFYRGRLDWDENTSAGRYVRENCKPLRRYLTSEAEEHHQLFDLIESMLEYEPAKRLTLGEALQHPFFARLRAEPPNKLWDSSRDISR

inhibition (ABL1 (human)): 3%
inhibition [1]: 3%
inhibition [2]: 1%
inhibition (AKT1 (human)): 2%
inhibition (CDK1 CCNB1 (human)): 9%
inhibition (CDK5 CDK5R1 p35 (human)): -1%
inhibition (CLK2 (human)): 15%
inhibition (CSNK2A1 (human)): 1%
inhibition (DAPK3 (human)): 1%
inhibition [3]: 12%
inhibition [4]: 6%
inhibition (EPHA2 (human)): 8%
inhibition (EPHA3 (human)): -2%
inhibition (EPHB3 (human)): -1%
inhibition (EPHB4 (human)): -4%
inhibition (ERBB2 (human)): -4%
inhibition (FYN (human)): 9%
inhibition (GRK4 (human)): 2%
inhibition (INSRR (human)): 3%
inhibition (IRAK4 (human)): 12%
inhibition (JAK2 JH1 JH2 (human)): 18%
inhibition (MAPK1 (human)): 6%
inhibition (MAPKAPK5 (human)): -1%
inhibition [5]: 1%
inhibition (MST4 (human)): -3%
inhibition (MUSK (human)): 5%
inhibition (MYLK2 (human)): 8%
inhibition (NTRK2 (human)): 9%
inhibition (PAK3 (human)): -1%
inhibition (PDGFRB (human)): 5%
inhibition (PDPK1 (human)): 4%
inhibition (PLK2 (human)): -2%
inhibition (PRKACA (human)): 0%
inhibition (PRKCD (human)): 4%
inhibition (PTK2 (human)): 4%
inhibition (RPS6KA5 KD1 KD2 (human)): 8%
inhibition (SGK2 (human)): 10%
inhibition (STK24 (human)): 7%
inhibition (STK3 (human)): 5%
inhibition (SYK (human)): 1%
SMILES: Nc1cc(C(F)(F)F)c(-c2cc(N3CCOCC3)nc(N3CCOCC3)n2)cn1

— the kinase profiling compilation of Christmann-Franck et al. (2016)
